WO2016087994A1, “Btk inhibitors to treat solid tumors through modulation of the tumor microenvironment” (dated 2016)
pEC50, pIC50: −log10 of the molar value. “Also recorded” adds a separate entry of the source.

Experiments:
CLL = conditions: cited from earlier work
[1] = tested on: metastatic pancreatic cancer; conditions: Phase 3; P < 0.001; cited from earlier work
[2] = tested on: human platelet-mediated thrombosis; assay: In vivo human platelet thrombus formation after laser injury in VWF HA1 mice; set-up: species or system human platelets in VWF HA1 mice
[3] = tested on: GPVI platelet aggregation; assay: GPVI (convulxin-induced) human platelet aggregation; type: cell-based
[4] = tested on: rituximab-coated Raji cells; assay: Rituximab ADCC, chromium release, Raji targets; type: cell-based, human; conditions: 1 μM; healthy donor NK cells / Raji; listed as ibrutinib
[5] = tested on: B cell receptor (CD69 on CD19+ B cells); assay: Inhibition of BCR signaling (CD69) on B cells in whole blood; type: cell-based; conditions: Homo sapiens, 18 h
CD4 + T cells = assay: Th17 and Treg development of CD4+ T cells; type: cell-based
CD8 + T cells [6] = assay: CD8+ T cell viability; type: cell-based; conditions: higher concentrations of ibrutinib; any concentration of Formula (II)
[7] = tested on: CD8 + T cells with B lymphoblast targets; assay: Cytotoxic T cell (CTL) assay; type: cell-based; conditions: 500 nM, relative to vehicle
CD8 + T cells [8] = assay: CD8+ T cell IFN-γ levels; type: cell-based; conditions: relative to vehicle
[9] = target: epidermal growth factor receptor (EGFR) (Homo sapiens, UniProt P00533); conditions: cited from earlier work
[10] = tested on: CLL/lymphoid malignancies; conditions: human, in vivo; cited from earlier work
[11] = 420 mg QD; cited from earlier work
[12] = Phase 1, previously treated CLL, monotherapy

epidermal growth factor receptor (EGFR), sequence (P00533 25-1210): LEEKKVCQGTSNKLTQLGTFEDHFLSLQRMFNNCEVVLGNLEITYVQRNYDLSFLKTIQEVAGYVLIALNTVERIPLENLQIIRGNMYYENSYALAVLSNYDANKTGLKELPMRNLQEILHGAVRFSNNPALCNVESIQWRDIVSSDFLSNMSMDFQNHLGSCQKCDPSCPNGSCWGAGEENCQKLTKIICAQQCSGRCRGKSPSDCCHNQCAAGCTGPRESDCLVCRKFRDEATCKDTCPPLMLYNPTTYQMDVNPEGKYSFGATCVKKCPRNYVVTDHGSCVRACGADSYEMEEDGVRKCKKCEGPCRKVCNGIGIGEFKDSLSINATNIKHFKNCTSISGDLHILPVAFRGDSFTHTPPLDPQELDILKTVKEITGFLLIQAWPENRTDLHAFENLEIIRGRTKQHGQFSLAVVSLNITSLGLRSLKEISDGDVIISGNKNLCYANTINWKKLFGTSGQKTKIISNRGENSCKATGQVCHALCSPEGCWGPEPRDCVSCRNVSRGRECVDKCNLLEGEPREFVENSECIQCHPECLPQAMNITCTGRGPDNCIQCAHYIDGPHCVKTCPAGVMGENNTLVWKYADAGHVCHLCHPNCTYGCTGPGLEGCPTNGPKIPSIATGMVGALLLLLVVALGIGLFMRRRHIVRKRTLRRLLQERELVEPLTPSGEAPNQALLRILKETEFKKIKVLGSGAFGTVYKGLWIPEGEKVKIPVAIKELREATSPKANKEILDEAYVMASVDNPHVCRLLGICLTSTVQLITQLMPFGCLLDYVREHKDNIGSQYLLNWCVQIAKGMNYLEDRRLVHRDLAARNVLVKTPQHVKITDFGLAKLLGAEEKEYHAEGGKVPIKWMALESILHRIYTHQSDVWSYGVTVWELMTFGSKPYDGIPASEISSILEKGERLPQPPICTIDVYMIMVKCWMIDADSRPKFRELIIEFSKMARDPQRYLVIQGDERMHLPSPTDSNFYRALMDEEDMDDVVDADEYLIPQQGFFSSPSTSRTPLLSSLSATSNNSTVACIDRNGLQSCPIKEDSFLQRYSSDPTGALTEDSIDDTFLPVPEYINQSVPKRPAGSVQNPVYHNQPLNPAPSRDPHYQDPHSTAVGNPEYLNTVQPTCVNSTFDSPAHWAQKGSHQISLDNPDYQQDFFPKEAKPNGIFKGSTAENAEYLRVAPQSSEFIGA

obinutuzumab: humanized monoclonal antibody directed against CD20
MRD-negative complete responses (CLL; [12]): 1 | response rate (CLL; [12]): 62% | infusion related reactions (IRR), Grade 3 (CLL; R/R CLL, Phase 1 portion, n=13): 15% | infusion related reactions (IRR), Grade 4 (in words) (CLL; R/R CLL, Phase 1 portion, n=13): no Grade 4 | infusion related reactions (IRR), all grade (CLL; R/R CLL, Phase 1 portion, n=13): 100 % of patients | Grade 3 reactions among those with hypotension (CLL; R/R CLL, Phase 2 portion): 25% | IRR cases developing symptoms of hypotension (CLL; R/R CLL, Phase 2 portion): 60 % of cases | patients with IRR (CLL; R/R CLL, Phase 2 portion): 95 % of patients

Nc1ccn([C@@H]2O[C@H](CO)[C@@H](O)C2(F)F)c(=O)n1 [gemcitabine, 4-amino-l-((2i?,4i?,5i?)-3,3-difluoro-4-hydroxy-5-(hydroxymethyl)tetrahydrofuran-2-yl)pyrimidin-2(lH)-one]
ORR [1]: 7% | median OS [1]: 6.7 months | median PFS [1]: 3.7 months

C=CC(=O)Nc1cccc(Nc2nc(Nc3ccc(OCCOC)cc3)ncc2F)c1 [Formula (XVII), N-(3-((5-fluoro-2-((4-(2-methoxyethoxy)phenyl)amino)pyrimidin-4-yl)amino)phenyl)acrylamide, reference compound]
effect on thrombus formation (in words) [2]: interfere with thrombus formation; also recorded: an effect similar to Formula (X) (ibrutinib)

C=CC(=O)N1CCC[C@@H](n2nc(-c3ccc(Oc4ccccc4)cc3)c3c(N)ncnc32)C1 [Formula (X), l-[(3i?)-3-[4-amino-3-(4-phenoxyphenyl)-lH-pyrazolo[3,4-i]pyrimidin-l-yl]piperidin-l-yl]prop-2-en-l-one]
inhibition of GPVI platelet aggregation (in words) [3]: significantly inhibits GPVI platelet aggregation | pIC50 ([3]; Homo sapiens, Platelet, read-out: IC50, GPVI platelet aggregation): 6.89 | inhibition of rituximab ADCC (in words) [4]: completely inhibited ADCC; also recorded: strongly inhibited the antibody-dependent lysis of target cells | pEC50 [5]: 8.21 | Th17 development (in words) (CD4 + T cells): profound inhibition of Thl7 cells | Treg development (in words) (CD4 + T cells): increase in Treg development | CD8+ T cell viability (in words) (CD8 + T cells [6]): strong, negative effect on CD8 + T cell viability | CD8+ T cell function as % cytotoxicity (in words) [7]: affects CD8 + T cell function | CD8+ T cell function as IFN-γ level (in words) (CD8 + T cells [8]): affects CD8 + T cell function; also recorded: significant loss of function | inhibition of EGFR (in words) [9]: inhibits epidermal growth factor receptor (EGFR) | onset of lymphocytosis after start of therapy [10]: 1-2 weeks | time to plateau of lymphocytosis [10]: 2-3 cycles | bleeding events in CLL [11]: 63%
